The source of these data is patent publication US12162855B2, “Tetrahydroquinolino derivatives for the treatment of metastatic and chemoresistant cancers” (THE TRUSTEES OF PRINCETON UNIVERSITY, priority 2018, dated 2024).

SMILES strings stand for the structures.

The assay has as its target T1, ALDH1a3 (Homo sapiens, UniProt P47895).
T1 construct: lentiviral vectors containing either the vector backbone or full-length human Aldh1a3; expressed in transfected cells; host or cells: SUM159-M1a (A1) and SUM159 (A7) breast cancer cells, lentiviral pLex vector, puromycin selection
T1 sequence (P47895 1-512): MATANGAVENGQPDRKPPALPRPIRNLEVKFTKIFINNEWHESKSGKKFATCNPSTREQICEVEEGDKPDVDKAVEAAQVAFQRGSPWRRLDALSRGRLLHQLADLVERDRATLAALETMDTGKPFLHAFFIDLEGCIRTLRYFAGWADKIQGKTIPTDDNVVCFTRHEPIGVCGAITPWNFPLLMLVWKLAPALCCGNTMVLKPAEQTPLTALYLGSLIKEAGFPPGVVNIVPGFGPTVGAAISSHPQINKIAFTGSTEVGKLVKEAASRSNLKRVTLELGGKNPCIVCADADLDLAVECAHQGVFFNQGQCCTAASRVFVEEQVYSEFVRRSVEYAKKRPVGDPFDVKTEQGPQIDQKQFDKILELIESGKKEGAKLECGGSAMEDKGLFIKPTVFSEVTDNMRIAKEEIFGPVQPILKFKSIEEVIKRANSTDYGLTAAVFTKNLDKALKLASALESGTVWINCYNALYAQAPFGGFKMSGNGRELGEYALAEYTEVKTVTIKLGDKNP
The assay can be described thus: ALDEFLUOR assay in SUM159-M1a-Aldh1a3 cells (flow cytometry). It is filed as cell-based. As to conditions: for inhibition at 0.1 µM / Percent of Cells Positive for ALDEFLUOR at 100 nM: SUM159-M1a-Aldh1a3 cells, compound at 100 nM; for inhibition at 0.1 µM: read-out: Inhibitory Activity at 100 nM (%). As for the experimental part:
Cells were counted, centrifuged and resuspended at 1,000,000 cells/mL in ALDEFLUOR™ buffer (Stemcell Technologies). ALDEFLUOR™ substrate (Stemcell Technologies, 1:200) and test compound or 1 mM DEAB were added to cell suspension and incubated at 37° C. for 45 minutes with vortexing every 15 minutes. Cells were centrifuged and resuspended in ALDEFLUOR™ buffer with DAPI at 5 μg/mL. Samples were analyzed with the BD LSR2 flow cytometry platform. Gating was performed using DEAB as a negative control.
Gating for background fluorescence was performed using 1 millimolar DEAB as a negative control.
The [inh-min] threshold was set at the lower bound of two standard deviations of control samples, while the IC50 threshold was set at 50% of the average of control samples.
High activity was gated at the 99th percentile of cells at a MBE1.5 concentration of 10 nanomolar. The [inh-min] threshold was set at the lower bound of two standard deviations of control samples.
An ALDEFLUOR™ assay was also used to assess the relative activity of several compounds described herein against SUM159-M1a-Aldh1a3 cells. The activity of several compounds in the assay at a concentration of 100 nM is reported in Table 1, along with the chemical structure and compound name associated with each compound.
On the technique in general: Flow cytometry measures light scatter and fluorescence of single cells or particles in a stream.

For the molecule `Cc1ccc(C(=O)Nc2ccc3c(c2)CCC(=O)N3)cc1C` [MBE3.1, 3,4-dimethyl-N-(2-oxo-1,2,3,4-tetrahydroquinolin-6-yl)benzamide], the inhibition at 0.1 µM turned out to be 0.6%.
The same measure, in the same setting: under `O=C1CCc2cc(NCc3ccccc3)ccc2N1` [MBE3.4, 6-(benzylamino)-3,4-dihydroquinolin-2(1H)-one] stands 11%.
On the same count and under the same terms, to `Cc1ccc(C(=O)Nc2ccc3c(c2)CCC(=O)N3)c(C)c1` [MBE3.2, 2,4-dimethyl-N-(2-oxo-1,2,3,4-tetrahydroquinolin-6-yl)benzamide] belongs 3.3%.
As for `CC(C)Cc1ccccc1C(=O)Nc1cc2c(cc1F)NC(=O)CC2` [MBE1.5C, N-(7-fluoro-2-oxo-1,2,3,4-tetrahydroquinolin-6-yl)-2-isobutylbenzamide], the “relative potency, ALDEFLUOR activity (FIG. 12)” value (concentration of 10 nM, compared to DMSO or DEAB-treated cells) is “nearly twice as potent as MBE 1.5, MBE 1.5A or MBE 1.5D”.
In the case of `Cc1ccccc1C(=O)Nc1ccc2c(c1)CCC(=O)N2` [MBE3.3, 2-methyl-N-(2-oxo-1,2,3,4-tetrahydroquinolin-6-yl)benzamide], the inhibition at 0.1 µM was 42%.
On to `CCc1cnccc1C(=O)Nc1ccc2c(c1)CCC(=O)N2` [MBE1.6, 3-ethyl-N-(2-oxo-1,2,3,4-tetrahydroquinolin-6-yl)isonicotinamide], for which the “Percent of Cells Positive for ALDEFLUOR at 100 nM” value (“Percent of Cells Positive” for short) worked out at 13% and the inhibition at 0.1 µM stood at 83%. Besides, the “inhibition of ALDH1a3 activity (FIG. 1A)” value (compounds at 100 nM) is recorded as “high-affinity compounds for the inhibition of ALDH1a3 activity”.
In the case of `Cc1ccc(C)c(CNc2ccc3c(c2)CCC(=O)N3)c1` [MBE2, 6-((2,5-dimethylbenzyl)amino)-3,4-dihydroquinolin-2(1H)-one], the inhibition at 0.1 µM stood at 45%.
As to `Cc1cncc(C(=O)Nc2cc3c(cc2F)NC(=O)CC3)c1` [MBE3.6, N-(7-fluoro-2-oxo-1,2,3,4-tetrahydroquinolin-6-yl)-5-methylnicotinamide], the “Percent of Cells Positive” value is listed as 55% and the inhibition at 0.1 µM was 29%.
For `O=C1CCc2cc(NCc3ccc[nH]3)c(F)cc2N1` [MBE3.8, 6-(((1H-pyrrol-2-yl)methyl)amino)-7-fluoro-3,4-dihydroquinolin-2(1H)-one], the “Percent of Cells Positive” value worked out at 75% and the inhibition at 0.1 µM came to 2%.
On to `O=C1CCc2cc(NC(=O)c3ccncc3F)c(F)cc2N1` [MBE3.5, 3-fluoro-N-(7-fluoro-2-oxo-1,2,3,4-tetrahydroquinolin-6-yl)isonicotinamide], for which the “Percent of Cells Positive” value is 63% and the inhibition at 0.1 µM turned out to be 18%.
Take `O=C1CCc2cc(NC(=O)c3ccncc3)c(F)cc2N1` [MBE1.2, N-(7-fluoro-2-oxo-1,2,3,4-tetrahydroquinolin-6-yl)isonicotinamide]: the inhibition at 0.1 µM worked out at 8%.
